Patent US8586628B2, “Use of Propineb as bird repellent” (Bayer Cropscience AG, priority 2009, dated 2013)
Where “and” joins values, the source holds several entries; their conditions need not be identical. Identical values can stand only once.

System: pigeon
Test: Screening experiment with pigeon on the repellency of treated maize seeds (two-bowl choice, treated vs untreated maize)
Format: in vivo
Details: for Food consumption of untreated maize (U), Day 1 / Food consumption of untreated maize (U), Day 2: untreated bowl beside treated bowl; for Mean food consumption of untreated maize per group and per day, day 0 / Mean food consumption of untreated maize per group and per day, day 1 / Mean food consumption of untreated maize per group and per day, day 3 / Food consumption of untreated maize (U), Mean/group / Food consumption of untreated maize (U), Mean/birds: untreated bowl; for Food consumption of untreated maize (U), Mean/group / Food consumption of treated maize (T), Mean/group: mean of 3 pigeons over Day 0-2; for Food consumption of untreated maize (U), Day 0: untreated bowl (40 g) offered beside treated bowl
Method: Screening Experiment with Pigeon on the Repellency of Maize Seeds Treated with Different Thiram and Propineb Formulations
15 singly housed pigeons were acclimated to maize as food source over a couple of days. From day—3 to day—1 they received exclusively untreated maize (40 g/bird). Food consumption was determined (see Table 1 below). All birds accepted maize seed as food. The different groups behaved similarly:
Food was offered in 2 bowls, one with treated, the other with untreated maize. The position of the two bowls was changed from day to day as well as during the day. Food consumption was again measured (see Table 2 below)
Group 1 (Aviary 1 to 3): Thiram 160 g/dt
Group 2 (Aviary 4 to 6): Thiram 80 g/dt
Group 3 (Aviary 7 to 9): Propineb160 g/dt
Group 4 (Aviary 10 to 12):Propineb 80 g/dt

[1] = 80 g/dt group, single pigeon, Day 1
[2] = 80 g/dt group, mean per bird over Day 0-2

Compound	Food consumption of untreated maize (U), Day 1 [1]	Food consumption of untreated maize (U), Day 2 (80 g/dt group, single pigeon)	Mean food consumption of untreated maize per group and per day, day 0 (80 g/dt group) [g]	Mean food consumption of untreated maize per group and per day, day 1 (80 g/dt group) [g]	Mean food consumption of untreated maize per group and per day, day 3 (80 g/dt group) [g]	Food consumption of untreated maize (U), Mean/group (80 g/dt group) [g]	Food consumption of untreated maize (U), Mean/birds [2]	Food consumption of untreated maize (U), Day 2 (160 g/dt group, single pigeon)	Mean food consumption of untreated maize per group and per day, day 0 (160 g/dt group) [g]	Mean food consumption of untreated maize per group and per day, day 1 (160 g/dt group) [g]	Mean food consumption of untreated maize per group and per day, day 3 (160 g/dt group) [g]	Food consumption of untreated maize (U), Mean/group (160 g/dt group) [g]	Mean food consumption of treated maize per group and per day, day 0 (maize treated at 80 g/dt) [g]	Mean food consumption of treated maize per group and per day, day 1 (maize treated at 80 g/dt) [g]	Mean food consumption of treated maize per group and per day, day 3 (maize treated at 80 g/dt) [g]	Food consumption of treated maize (T), Mean/group (maize treated at 80 g/dt) [g]	Mean food consumption of treated maize per group and per day, day 0 (maize treated at 160 g/dt) [g]	Mean food consumption of treated maize per group and per day, day 1 (maize treated at 160 g/dt) [g]	Mean food consumption of treated maize per group and per day, day 3 (maize treated at 160 g/dt) [g]	Food consumption of treated maize (T), Mean/group (maize treated at 160 g/dt) [g]	also measured
CN(C)C(=S)SSC(=S)N(C)C [Thiram, reference compound]	11.8 g and 18.4 g and 18.2 g	14.5 g and 19.3 g and 19.7 g	16.4	16.1	17.8	16.8	13.6 g and 17.8 g and 18.9 g	14.5 g and 23.4 g and 23.0 g	16.9	18.5	20.3	18.6	0.9	0.2	1.1	0.7	6.0	5.3	2.8	4.6	Food consumption of untreated maize (U), Day 0 (80 g/dt seed treatment group, single pigeon (aviary), Day 0): 14.4 g and 15.8 g and 18.9 g; Food consumption of treated maize (T), Mean/birds (maize treated at 160 g/dt, mean per bird over Day 0-2): 0.0 g
Propineb	17.5 g and 23.2 g and 20.6 g	25.9 g and 27.5 g and 28.6 g	14.1	20.4	27.3	20.6	20.1 g and 23.6 g and 18.0 g	26.1 g and 19.9 g and 28.3 g	22.6	24.8	24.8	24.4	2.8	2.1	0.0	1.7	0.0	0.6	0.0	0.2	Food consumption of untreated maize (U), Day 1 (160 g/dt group, single pigeon, Day 1): 24.6 g and 19.5 g and 30.2 g; Food consumption of untreated maize (U), Mean/birds (160 g/dt group, mean per bird over Day 0-2): 24.6 g and 21.3 g and 26.2 g; Food consumption of untreated maize (U), Day 0 (160 g/dt seed treatment group, single pigeon (aviary), Day 0): 23.1 g and 24.6 g and 20.0 g; Bird repellent activity compared with Thiram (compared at the registered rate of Thiram, pigeon, treated maize seed): substantially better activity than Thiram; Food consumption of treated maize (T), Day 1 (maize treated at 80 g/dt, choice with untreated, single pigeon, Day 1): 2.9 g and 1.7 g and 1.8 g; Food consumption of treated maize (T), Day 2 (maize treated at 80 g/dt, choice with untreated, single pigeon): 0.0 g; Food consumption of treated maize (T), Day 0 (maize treated at 160 g/dt, 40 g offered beside 40 g untreated, single pigeon (aviary), Day 0): 0.0 g; Food consumption of treated maize (T), Day 2 (maize treated at 160 g/dt, choice with untreated, single pigeon): 0.0 g
